Reference: the supplement of paper PMC11061612

Experiments:
Test in all cases: Bliss excess, mean over the matrix (fraction); higher = more synergy
[1] = test system: 647-V (Bladder Carcinoma)
In short: (§1)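 Cell lines grown in DMEM/F12 or RPMI with 10% FBS were plated in 1536-well plates and held 24 hours at 37°C, 5% CO2 before 72 hours of exposure to two-drug dose matrices, with DMSO typically at 0.2%. CellTiter-Glo 2.0 luminescence gave viability, which was converted to inhibition. Vehicle wells were set to 0 and blank wells to 1. Combination Emax is the second-highest inhibition in the matrix, and Bliss excess is the observed combination effect minus the expected EA + EB − EA·EB, where EA and EB are the single-agent effects.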

[2] = test system: A172 (Glioblastoma)
In short: as §1

[3] = test system: BICR78 (Oral Cavity Carcinoma)
In short: as §1

[4] = test system: CAL-39 (Other Solid Carcinomas)
In short: as §1

[5] = test system: DOK (Oral Cavity Carcinoma)
In short: as §1

[6] = test system: EW-22 (Ewing's Sarcoma)
In short: as §1

[7] = test system: GDM-1 (Acute Myeloid Leukemia)
In short: as §1

[8] = test system: H4 (Low Grade Glioma)
In short: as §1

[9] = test system: HCC-827 (Lung Adenocarcinoma)
In short: as §1

[10] = test system: HCC1143 (Breast Carcinoma)
In short: as §1

[11] = test system: HCT-116 (Colorectal Carcinoma)
In short: as §1

[12] = test system: P31-FUJ (Acute Myeloid Leukemia)
In short: as §1

[13] = test system: RCC10RGB (Kidney Carcinoma)
In short: as §1

[14] = test system: SKN-3 (Head and Neck Carcinoma)
In short: as §1

[15] = test system: SW948 (Colorectal Carcinoma)
In short: as §1

[16] = test system: Saos-2 (Osteosarcoma)
In short: as §1

[17] = test system: TYK-nu (Ovarian Carcinoma)
In short: as §1

[18] = test system: U-118-MG (Low Grade Glioma)
In short: as §1

[19] = test system: WSU-DLCL2 (B-Cell Non-Hodgkin's Lymphoma)
In short: as §1

[20] = test system: YT (Other Blood Carcinomas)
In short: as §1

Row | SMILES | Bliss excess [1] | Bliss excess [2] | Bliss excess [3] | Bliss excess [4] | Bliss excess [5] | Bliss excess [6] | Bliss excess [7] | Bliss excess [8] | Bliss excess [9] | Bliss excess [10] | Bliss excess [11] | Bliss excess [12] | Bliss excess [13] | Bliss excess [14] | Bliss excess [15] | Bliss excess [16] | Bliss excess [17] | Bliss excess [18] | Bliss excess [19] | Bliss excess [20]
1 | Cc1c2c(nn1C)CSCc1cc(n(C)n1)CSc1cc(c3ccccc3c1)OCCCc1c(C(=O)O)n(C)c3c-2c(Cl)ccc13 [AZD5991] + C[C@@H](Nc1cc(F)cc(F)c1)c1cc(C(=O)N(C)C)cc2c(=O)cc(N3CCOCC3)oc12 [AZD8186] (first compound max 1 µM, 7x7, partner max 3 µM) | 0.0458 | -0.004 | -0.034 | 0.0117 | 0.003 | -0.0396 | 0.0355 | -0.0054 | 0.0064 | 0.0441 | -0.0421 | -0.041 | -0.0349 | -0.0606 | -0.0498 | -0.0271 | -0.0118 | 0.0012 | -0.058 | 0.0223
2 | CC1(C)CCC(CN2CCN(c3ccc(C(=O)NS(=O)(=O)c4ccc(NCC5CCOCC5)c([N+](=O)[O-])c4)c(Oc4cnc5[nH]ccc5c4)c3)CC2)=C(c2ccc(Cl)cc2)C1 [Venetoclax] + CN(C)CCCOc1ccc(-c2ccc3ncc4c(c3c2)n(C2CCOCC2)c(=O)n4C)cn1 [AZD0156] (first compound max 1 µM, 7x7, partner max 1 µM) | -0.0036 | -0.0482 | 0.0047 | -0.0214 | -0.0184 | 0.0003 | -0.0235 | -0.0861 | -0.0453 | -0.0051 | -0.0286 | -0.0179 | -0.0677 | -0.0221 | -0.0001 | -0.0364 | -0.0516 | -0.0076 | 0.0518 | 0.0204
3 | C[C@@H](c1ccc2nccn2c1)n1nnc2ncc(-c3cnn(C)c3)nc21 [Savolitinib] + Cc1c2c(nn1C)CSCc1cc(n(C)n1)CSc1cc(c3ccccc3c1)OCCCc1c(C(=O)O)n(C)c3c-2c(Cl)ccc13 [AZD5991] (first compound max 1 µM, 7x7, partner max 1 µM) | -0.0594 | -0.0747 | -0.0214 | -0.0722 | -0.0681 | -0.0595 | -0.0004 | 0.0076 | -0.008 | 0.0108 | -0.0593 | -0.049 | -0.0371 | -0.0758 | -0.0305 | -0.0405 | -0.0393 | 0.0095 | 0.0276 | -0.0156
4 | COc1nnc2ccc(N3CCC(c4ccc(OCCN5CCN(C)C(=O)[C@H]5C)cc4)CC3)nn12 [AZD5153] + Cc1c2c(nn1C)CSCc1cc(n(C)n1)CSc1cc(c3ccccc3c1)OCCCc1c(C(=O)O)n(C)c3c-2c(Cl)ccc13 [AZD5991] (first compound max 1 µM, 7x7, partner max 1 µM) | -0.0135 | -0.0698 | -0.027 | 0.0313 | -0.0051 | 0.0553 | 0.0307 | -0.0287 | -0.0225 | 0.0412 | -0.0049 | -0.0869 | -0.0843 | -0.0234 | -0.0482 | 0.0143 | -0.0363 | -0.0341 | 0.0182 | -0.0316
5 | COc1cccc(OCCCN)c1-c1cc(Nc2cnc(C#N)cn2)n[nH]1 [Prexasertib] + CCc1c2c(nc3ccc(O)cc13)-c1cc3c(c(=O)n1C2)COC(=O)[C@]3(O)CC [SN-38] (first compound max 1 µM, 7x7, partner max 0.3 µM) | 0.0129 | -0.0322 | -0.0236 | -0.0308 | 0.0242 | -0.0916 | -0.0108 | -0.0544 | 0 | 0.0452 | -0.0124 | -0.0507 | -0.081 | 0.0703 | 0.151 | -0.0064 | -0.0899 | -0.0193 | -0.006 | -0.0527
6 | CN(CCO)CC[C@H](CSc1ccccc1)Nc1ccc(S(=O)(=O)NC(=O)c2ccc(N3CCC([C@@H](O)c4ccccc4-c4ccc(Cl)cc4)CC3)cc2)cc1S(=O)(=O)C(F)(F)F [AZD4320] + C[C@@H]1COCCN1C2=NC(=NC(=C2)C3(CC3)[S@](=N)(=O)C)C4=C5C=CNC5=NC=C4 [AZD6738] (first compound max 1 µM, 7x7, partner max 10 µM) | -0.0222 | -0.0748 | 0.0039 | -0.0685 | -0.0269 | 0.0762 | -0.0144 | -0.0249 | 0.0192 | -0.0812 | -0.0143 | -0.0083 | -0.0734 | -0.0127 | -0.0873 | 0.0256 | -0.0115 | -0.0285 | 0.0329 | -0.0251
7 | COc1nnc2ccc(N3CCC(c4ccc(OCCN5CCN(C)C(=O)[C@H]5C)cc4)CC3)nn12 [AZD5153] + CCN(CCO)CCCOc1ccc2c(Nc3cc(CC(=O)Nc4cccc(F)c4)[nH]n3)ncnc2c1 [AZD2811] (first compound max 1 µM, 7x7, partner max 1 µM) | 0.0236 | -0.0466 | -0.0537 | -0.0508 | -0.0906 | -0.0779 | -0.0378 | -0.0269 | -0.0513 | -0.0474 | -0.0384 | -0.0293 | -0.133 | -0.0436 | -0.102 | -0.0809 | -0.0658 | -0.0317 | -0.019 | -0.0579
8 | CC1(C)CCC(CN2CCN(c3ccc(C(=O)NS(=O)(=O)c4ccc(NCC5CCOCC5)c([N+](=O)[O-])c4)c(Oc4cnc5[nH]ccc5c4)c3)CC2)=C(c2ccc(Cl)cc2)C1 [Venetoclax] + C[C@@H](Nc1cc(F)cc(F)c1)c1cc(C(=O)N(C)C)cc2c(=O)cc(N3CCOCC3)oc12 [AZD8186] (first compound max 1 µM, 7x7, partner max 3 µM) | -0.0019 | -0.0414 | -0.0423 | -0.106 | -0.0548 | 0.0333 | 0.15 | -0.0302 | -0.0146 | -0.0141 | -0.0421 | 0.0178 | -0.0866 | -0.0192 | -0.0518 | 0 | -0.0103 | -0.0383 | 0.0951 | 0.0317
9 | COc1cccc(OCCCN)c1-c1cc(Nc2cnc(C#N)cn2)n[nH]1 [Prexasertib] + O=C(c1cc(Cc2n[nH]c(=O)c3ccccc23)ccc1F)N1CCN(C(=O)C2CC2)CC1 [Olaparib] (first compound max 1 µM, 7x7, partner max 10 µM) | 0.0459 | -0.0474 | -0.0261 | -0.008 | -0.0269 | -0.0447 | -0.0516 | -0.0306 | -0.0262 | -0.18 | 0.0121 | -0.0141 | -0.0784 | -0.0113 | -0.0118 | -0.0123 | -0.0934 | -0.0445 | -0.0311 | -0.0314
10 | Cc1c2c(nn1C)CSCc1cc(n(C)n1)CSc1cc(c3ccccc3c1)OCCCc1c(C(=O)O)n(C)c3c-2c(Cl)ccc13 [AZD5991] + CC1(C)CCC(CN2CCN(c3ccc(C(=O)NS(=O)(=O)c4ccc(NCC5CCOCC5)c([N+](=O)[O-])c4)c(Oc4cnc5[nH]ccc5c4)c3)CC2)=C(c2ccc(Cl)cc2)C1 [Venetoclax] (first compound max 1 µM, 7x7, partner max 1 µM) | -0.0271 | -0.0222 | -0.0106 | -0.0298 | 0.0712 | 0.128 | 0.174 | 0.0384 | -0.0269 | 0.0051 | -0.0317 | 0.137 | -0.0086 | -0.03 | -0.003 | 0.0174 | -0.0144 | -0.0328 | 0.173 | -0.0017
11 | COc1cc2ncnc(Nc3ccc(F)c(Cl)c3)c2cc1OCCCN1CCOCC1 [Gefitinib] + CC(C)n1c(=O)n(C)c2cnc3cc(F)c(-c4ccc(OCCCN5CCCCC5)nc4)cc3c21 [AZD1390] (first compound max 10 µM, 7x7, partner max 0.3 µM) | -0.0735 | -0.0554 | -0.0788 | -0.0004 | -0.0341 | -0.0252 | -0.0833 | -0.0806 | -0.0613 | -0.0572 | -0.0453 | -0.0201 | -0.0999 | -0.0688 | -0.0215 | -0.0621 | -0.0851 | -0.0498 | 0.0143 | -0.0513
12 | COc1cccc(OCCCN)c1-c1cc(Nc2cnc(C#N)cn2)n[nH]1 [Prexasertib] + CN(C)CCCOc1ccc(-c2ccc3ncc4c(c3c2)n(C2CCOCC2)c(=O)n4C)cn1 [AZD0156] (first compound max 1 µM, 7x7, partner max 1 µM) | -0.0525 | 0.0542 | -0.0292 | 0.0099 | -0.0225 | -0.05 | -0.0491 | -0.0309 | -0.0026 | -0.0453 | -0.0194 | 0.009 | -0.0296 | 0.011 | 0.0294 | -0.0869 | -0.0627 | 0.041 | 0.0086 | -0.0114
